Measurements reported in patent publication US7071376B2, “Genes encoding p-coumarate 3-hydroxylase (C3H) and methods of use” (Purdue Research Foundation, priority 2000, dated 2006).
Like-named read-outs stand apart in the source and are kept apart here. Each block holds one compound with its values, some of them ahead of it.

How the values were obtained:
F5H = target: T1, F5H (Arabidopsis thaliana, UniProt Q42600); settings: cited from earlier work
T1 construct: host or cells: yeast
T1 sequence (Q42600 1-520): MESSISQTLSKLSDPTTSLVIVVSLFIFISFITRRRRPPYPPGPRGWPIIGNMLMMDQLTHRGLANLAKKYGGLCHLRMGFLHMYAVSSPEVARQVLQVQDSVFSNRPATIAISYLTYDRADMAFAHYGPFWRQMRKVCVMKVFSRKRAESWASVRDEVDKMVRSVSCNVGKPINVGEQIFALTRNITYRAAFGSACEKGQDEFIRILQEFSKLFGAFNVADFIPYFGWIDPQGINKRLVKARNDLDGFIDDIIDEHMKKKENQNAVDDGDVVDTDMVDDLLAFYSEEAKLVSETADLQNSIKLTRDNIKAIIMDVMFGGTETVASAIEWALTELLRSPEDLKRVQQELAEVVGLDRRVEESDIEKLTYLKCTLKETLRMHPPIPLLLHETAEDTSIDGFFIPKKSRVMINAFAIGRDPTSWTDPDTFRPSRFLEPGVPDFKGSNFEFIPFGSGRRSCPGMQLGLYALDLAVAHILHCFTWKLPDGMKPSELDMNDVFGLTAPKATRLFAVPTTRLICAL

[1] = target: T2, C3H polypeptide (CYP98A3) (Arabidopsis thaliana, UniProt O22203); assay: in vitro C3H assay with microsomes from yeast expressing CYP98A3
T2 sequence (O22203 1-508): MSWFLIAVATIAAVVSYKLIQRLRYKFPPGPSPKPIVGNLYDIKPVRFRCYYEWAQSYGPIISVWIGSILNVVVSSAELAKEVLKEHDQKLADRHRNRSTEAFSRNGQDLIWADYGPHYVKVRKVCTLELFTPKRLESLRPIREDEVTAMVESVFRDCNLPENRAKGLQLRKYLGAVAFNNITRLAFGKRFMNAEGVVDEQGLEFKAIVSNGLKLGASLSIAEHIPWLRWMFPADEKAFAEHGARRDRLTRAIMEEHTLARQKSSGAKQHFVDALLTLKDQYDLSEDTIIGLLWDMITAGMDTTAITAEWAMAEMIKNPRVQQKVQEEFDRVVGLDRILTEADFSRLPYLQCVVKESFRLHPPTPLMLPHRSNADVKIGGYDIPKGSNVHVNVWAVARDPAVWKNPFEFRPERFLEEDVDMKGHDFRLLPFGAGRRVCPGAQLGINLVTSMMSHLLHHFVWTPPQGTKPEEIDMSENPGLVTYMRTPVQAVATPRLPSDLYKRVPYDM
Description: For C3H assays, an NADPH regenerating system consisting of 1 mM NADP^+, 10 mM glucose-6-phosphate, and 1 unit glucose-6-phosphate dehydrogenase was pre-incubated at 30 C for 5 min to permit the generation of NADPH in the presence of one of the putative C3H substrates in a final volume of 400 μL of assay buffer. Assays were initiated by the addition of 100 μL of microsomes and were allowed to incubate for 60 min at 30C before being terminated by boiling. Assays were clarified by centrifugation for 20 min at 13,000 ×g, and were analyzed directly by HPLC on a Microsorb-MV C-18 column (Rainin, Woburn Mass.) using a gradient of solvent A (1.0% acetic acid in water) and solvent B (acetonitrile; 0 to 10% B in 5 min, 10 to 25% B in 25 min; flow rate 1 mL min^−1). C3H reaction products were quantified using UV detection (caffeic acid, 322 nm; caffeyl aldehyde, 340 nm; caffeic acid methyl ester, 324 nm). Assays conducted using microsomes isolated from yeast transformed with pYeDP60 served as negative controls. The apparent Km for p-coumarate methyl ester was determined using triplicate assays analyzed by the Eadie-Hofstee method(Cornish-Bowden, 1995).
To experimentally address these issues, C3H-containing microsomes were prepared for use in in vitro assays of enzymatic activity.

[2] = target: T2, C3H polypeptide (CYP98A3)
Description: WAT11 cells were transformed with pYeDP60, pYeDP60-REF8, and pYeDP60-ref8 (Gietz et al., 1992), cultured and then induced with galactose as described previously (Urban et al., 1994). For in vivo measurements of enzyme activity, cells were grown in media supplemented with 5 mM p-coumaric acid. At the end of the incubation period the medium was extracted with ethylacetate, and analyzed by HPLC as described above.
Finally, WAT11 yeast carrying the control vector and the YeDP60-REF8 vector were assayed for C3H polypeptide activity in vivo by adding p-coumarate directly to the medium of galactose-induced yeast cultures.

[3] = yeast microsomes, NADPH regenerating system, 60 min, 30 C, HPLC

Structure (SMILES): COc1cc(/C=C/CO)ccc1O [coniferyl alcohol]
Vmax (F5H; substrate of F5H): 6 pKat mg^−1 | Km (F5H; substrate of F5H, read-out: Km): 3 µM

hydroxylation of substrate added to yeast medium (product caffeic acid) [2]: capable of hydroxylating
Structure (SMILES): O=C(O)/C=C/c1ccc(O)cc1 [p-coumarate]
activity of C3H toward substrate [1]: so low that it precluded detailed kinetic analysis

Structure (SMILES): COc1cc(/C=C/C=O)ccc1O [coniferaldehyde]
Vmax (F5H; substrate of F5H): 5 pKat mg^−1 | Km (F5H; substrate of F5H, read-out: Km): 1 µM

Structure (SMILES): OCC=Cc1ccc(O)cc1 [p-hydroxycinnamyl alcohol]
activity of C3H toward substrate [1, 3]: no activity

Structure (SMILES): COc1cc(/C=C/C(=O)O)ccc1O [ferulate]
activity of C3H toward substrate [1, 3]: No activity | Km (F5H; ferulate hydroxylation by F5H): 1000 µM

activity of C3H toward substrate [1]: much higher levels of activity | Km ([1]; read-out: apparent Km, substrate of C3H, yeast microsomes, triplicate assays, Eadie-Hofstee method): 2500 ± 100 µM
Structure (SMILES): COC(=O)/C=C/c1ccc(O)cc1 [p-coumaroyl methyl ester]

Structure (SMILES): O=C/C=C/c1ccc(O)cc1 [p-coumaraldehyde]
activity of C3H toward substrate [1, 3]: Levels of activity comparable to those seen with p-coumarate

Structure (SMILES): O=C(/C=C/c1ccc(O)cc1)O[C@@H]1O[C@H](CO)[C@@H](O)[C@H](O)[C@H]1O [1-O-p-coumaroyl—D-glucose]
activity of C3H toward substrate [1, 3]: no activity

Structure (SMILES): CC(C)(COP(=O)(O)OP(=O)(O)OC[C@H]1O[C@@H](n2cnc3c(N)ncnc32)[C@H](O)[C@@H]1OP(=O)(O)O)[C@@H](O)C(=O)NCCC(=O)NCCSC(=O)/C=C/c1ccc(O)cc1 [p-coumaroyl CoA]
activity of C3H toward substrate [1, 3]: no activity
